Results taken from ChEMBL document CHEMBL5532686, “Azole-based compounds as potential anti-Acanthamoeba agents” (RSC Med Chem, 2024).
In brackets after ≈: the same amount, converted by molar mass. Activity calls are given as the source filed them. The calls are words filed in the database; no cut-off is given here.

Tests used:
[1] = tested on: Acanthamoeba castellanii; assay: Anti-amoebic activity against Acanthamoeba castellanii genotype T4 (ATCC 50492) trophozoites assessed as reduction in encystation at 100 ug/ml incubated for 48 hrs by hemocytometer analysis; format: functional, organism-based; conditions: dose 100.0 µg/ml
[2] = tested on: Acanthamoeba castellanii; assay: Anti-amoebic activity against Acanthamoeba castellanii genotype T4 (ATCC 50492) trophozoites assessed as reduction in amoebae viability at 100 ug/ml incubated for 24 hrs by trypan blue exclusion test; format: functional
[3] = tested on: Acanthamoeba castellanii; assay: Anti-amoebic activity against Acanthamoeba castellanii genotype T4 (ATCC 50492) trophozoites assessed as reduction in amoebae viability incubated for 24 hrs by trypan blue exclusion test; format: functional
[4] = tested on: Acanthamoeba castellanii; assay: Anti-amoebic activity against Acanthamoeba castellanii genotype T4 (ATCC 50492) cysts assessed as reduction in excystation at 100 ug/ml incubated for 24 to 72 hrs by hemocytometer analysis; format: functional; conditions: time 24-72 hrs
[5] = tested on: Acanthamoeba castellanii; assay: Anti-amoebic activity against Acanthamoeba castellanii genotype T4 (ATCC 50492) cysts assessed as reduction in excystation incubated for 24 to 72 hrs by hemocytometer analysis; format: functional; conditions: time 24-72 hrs
[6] = tested on: HCT-116; assay: Cytotoxicity against human HCT-116 cells at 100 ug/ml incubated for 24 hrs by LDH assay; format: toxicity, cell-based; conditions: hct-116, 24 h, at 100 µg/mL
[7] = tested on: Acanthamoeba castellanii; assay: Anti-amoebic activity against Acanthamoeba castellanii genotype T4 (ATCC 50492) trophozoites infected in human HCT-116 cells assessed as protection against amoebae infection at 100 ug/ml amoebae pretreated with compound for 2 hrs followed by host cell infection and measured after 24 hrs by LDH assay; format: functional, organism-based; conditions: dose 100.0 µg/ml, time 26.0 hrs
[8] = tested on: HCT-116; assay: Cytotoxicity against human HCT-116 cells at 5X excystation MIC50 concentration incubated for 24 hrs by LDH assay; format: toxicity, cell-based; conditions: hct-116, 24 h

MIC50 [3] [µg/mL] | MIC50 [5] [µg/mL] | Structure (SMILES) | Activity [1] | inhibition at 100 µg/mL [2] [%] | inhibition at 100 µg/mL [4] [%] | Activity [6] [%] | Activity [7] | Activity [8] [%]
144 (≈ 287 µM) | 80.6 (≈ 160 µM) | CC(C)(C)c1ccc(-c2nnc(SCc3cccc(C(F)(F)F)c3)n2-c2cccc(Cl)c2)cc1 | inactive | 25 | 78 | 35 | inactive | –
180 (≈ 373 µM) | 19.5 (≈ 40.6 µM) | Cc1ccc(-n2c(SCc3cccc(C(F)(F)F)c3)nnc2-c2ccc(C(C)(C)C)cc2)cc1 | inactive | 27 | 86 | 35 | inactive | –
239 (≈ 512 µM) | 85.5 (≈ 183 µM) | CC(C)(C)c1ccc(-c2nnc(SCc3cccc(C(F)(F)F)c3)n2-c2ccccc2)cc1 | inactive | 17 | 78 | – | inactive | –
125 (≈ 235 µM) | 32 (≈ 60.1 µM) | CC(C)c1ccc(-c2nnc(SCc3cccc(C(F)(F)F)c3)n2-c2cccc(Br)c2)cc1 | inactive | 34 | 77 | – | inactive | 17
